Data taken from patent US20230406812A1, “NOVEL AMINOAROMATIC COMPOUND OR PHARMACEUTICALLY ACCEPTABLE SALT THEREOF, AND PHARMACEUTICAL COMPOSITION FOR PREVENTING OR TREATING NEURODEGENERATIVE DISEASES COMPRISING SAME AS ACTIVE INGREDIENT” (INSTITUTE FOR BASIC SCIENCE, priority 2020, published 2023).

Legend:
hemoglobin (Hb) = hemoglobin (Hb) (Homo sapiens, UniProt P68871+P69905); experiment: Hydrogen peroxide scavenging ability with hemoglobin (Amplex Red H2O2 assay); assay type: biochemical; details: 10 μM H2O2, 80 μg/ml hemoglobin, 37° C. about 30 minutes
Protocol: Amplex Red is a means which turns into a fluorescent substance called resorufin when horse radish peroxidase (HRP) and H2O2 exist together and allows measurement of changes in H2O2, that is, H2O2 assay. […] The experiment was performed by adding hemoglobin instead of HRP to the H2O2 assay by Amplex Red (FIG. 1). The final concentration of each substance was 10 μM of H2O2 and 80 μg/ml of hemoglobin, and the aminoaromatic compound of the present invention was treated by concentration. After the reaction at 37° C. for about 30 minutes as such, fluorescence (excitation: 540 nm, emission: 580 nm) was measured by a microplate reader. At this time, it can be said that fluorescence is proportional to the amount of H2O2. Normalization was performed for each concentration based on a fluorescence value without a drug, and a value at which the fluorescence value was 50%, that is, a half maximal effective concentration (EC50) was determined by a program through statistical processing. The results are shown in the following Table 2, and AAD-2004 was used as a control group.

cultured astrocytes = experiment: Cell viability (QuantiMax reagent); assay type: cell-based, C57BL/6 mice
Protocol: (§1) Primary cortical astrocytes were prepared from C57BL/6 mice from the day of birth to day 3 since birth. The cerebral cortex was dissected without adherent meninges, minced, and dissociated into a single cell suspension by trituration. The cells were grown in Dulbecco's modified Eagle's medium (DMEM) (Invitrogen) supplemented with 25 mM glucose, 10% heat-inactivated horse serum, 10% heat-inactivated fetal calf serum (FCS), 2 mM glutamine, and 1,000 U/ml of penicillin-streptomycin. Culture was maintained at 37° C. in a humidified 5% CO2 incubator. On day 3 of the culture, cells were vigorously washed by repeated pipetting, and the medium was exchanged to remove debris and other floating cell types.
In addition, in order to investigate cell viability, the experiment was performed using a QuantiMax reagent. The cell viability was confirmed by a luminescence degree of QuantiMax, and the results are shown in B of FIG. 3.

[1] = Blood brain barrier (BBB) permeability analysis (PAMPA); assay type: in vitro ADME
Protocol: Based on J Med Chem. 2001 Mar. 15; 44 (6):923-30., an artificial blood brain barrier (BBB) was produced by a parallel artificial membrane permeability assay (PAMPA), and the permeability of the drug was assessed.

[2] = tested on: APP/PS1 mouse hippocampus astrocytes (GFAP); experiment: Immunohistochemistry (IHC) I of brain tissue, GFAP; assay type: in vivo; details: 30 mg/kg/day IP for 16 days
Protocol: The brain of the Alzheimer's animal model of Experimental Example 3 was fixed with formaldehyde, and sliced into a small thickness. The amount of cells or specific protein in the sliced brain was measured with an image by histochemical staining. In the present experimental example, an antibody labeling an astrocyte was used to measure a change in astrocytes related to dementia. The results are illustrated in FIG. 5. That is, in the present experimental example, the hippocampus of the brain was histologically stained and a change in astrocytes around dementia substance amyloid beta was observed. Glial fibrillary acidic protein (GFAP) refers to astrocytes staining, 4′,6-diamidino-2-phenylindole (DAPI) marked cell nuclei and amyloid beta substance.

WT mouse (C57BL/6 mouse) = experiment: Single toxicity assessment (lethal dose 50, LD50); assay type: in vivo; details: for animals died: C57BL/6, mouse, 300 mg/kg; for animals died / toxicity (death of animals): in vivo, ip; for toxicity (death of animals): mouse, 1000 mg/kg; for lethal toxicity: single dose 100 mg/kg IP, C57BL/6 mouse
Protocol: The aminoaromatic compound of the present invention, KDS12008 (Example 1), KDS12017 (Example 16), or KDS12025 (Example 21) was intraperitoneally injected at a single dose of 100, 300, and 1000 mg/kg, respectively, into a WT mouse at about 8 weeks of age (C57BL/6 mouse), and it was assessed whether the animal was dead.

APP/PS1 mouse = experiment: Passive avoidance test (PAT) I; assay type: in vivo; details: 30 mg/kg/day IP for 16 days
Protocol: A passive avoidance test is an experiment to check the memory of animals, in which a weak electric stimulation was given in a dark room and it was assessed whether the animal remembered the electrical stimulation.
Since mice preferred a dark room, they have a tendency to move quickly to a dark room when they are in a bright room. […] A time to move from a bright room to a dark room (latency to dark room, sec) was measured, thereby measuring memory of a combination of the electrical stimulation and the dark room. An APP/PS1 mouse which is used as an Alzheimer's animal model was used to perform the passive avoidance test (FIG. 4). A wild type (WT) mouse was used as a control group.
On the first day of PAT, as an acquisition session, the mouse was allowed to stay in a bright room, and after a certain time, a dark room was opened and a time for the mouse to enter the dark room was measured. When the mouse entered the dark room, an electrical shock (0.5 mA, 2 sec) was given by a foothold. On the second day, as a retrieval session, the mouse was placed in a bright room, and a time for the mouse to enter a dark room was measured. At this time, the door of the dark room was opened first.
The APP/PS1 dementia mouse was intraperitoneally injected with the aminoaromatic compound of the present invention (KDS12008 (Example 1), KDS12017 (Example 16), or KDS12025 (Example 21)) (KDS12008 (Example 1) 30 mg/kg/day (30 mpk); KDS12017 (Example 16) 30 mg/kg/day (30 mpk); KDS12025 (Example 21) 3 mg/kg/day (3 mpk)) for 16 days (intraperitoneal injection, IP).

[3] = tested on: primary cultured astrocytes; experiment: In vitro H2O2 decomposition in primary cultured astrocytes (H2DCFDA-AM); assay type: cell-based, C57BL/6 mice
Protocol: as §1
In order to verify that there was a H2O2 scavenging effect in a cell-level experiment, a cell-permeant 2′,7′-dichlorodihydrofluorescein diacetate (H2DCFDA-AM) drug which is a hydrogen peroxide probe in astrocytes was used to measure the amount of H2O2 in the cells with fluorescence (A and B of FIG. 2). […]
An experiment timeline for investigating the H2O2 decomposition effect by the aminoaromatic compound of the present invention, KDS12008 (Example 1) (10 μM) and sodium pyruvate (10 mM) for naturally occurring H2O2 in the cultured astrocytes is shown in A of FIG. 2. […] H2DCFDA-AM was a sample which reacted with H2O2 to produce green fluorescence, and was used at 10 μM for measurement. […]

hemoglobin (Hb), sequence (P69905 2-142 limits assumed): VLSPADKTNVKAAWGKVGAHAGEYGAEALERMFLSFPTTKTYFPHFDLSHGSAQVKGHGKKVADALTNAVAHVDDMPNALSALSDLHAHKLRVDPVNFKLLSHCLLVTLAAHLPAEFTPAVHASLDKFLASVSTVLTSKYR
hemoglobin (Hb), sequence (P68871 2-147 limits assumed): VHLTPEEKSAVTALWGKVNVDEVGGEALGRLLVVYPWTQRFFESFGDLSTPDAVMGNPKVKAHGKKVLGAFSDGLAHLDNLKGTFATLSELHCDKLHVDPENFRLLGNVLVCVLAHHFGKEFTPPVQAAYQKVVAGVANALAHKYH

Row | Structure (SMILES) | EC50 (hemoglobin (Hb)) | also measured
1 | CN(C)c1ccc(NCCc2cccc(Cl)c2)cc1 [Example 5] | 0.43 µM | 
2 | CC(=O)C(=O)[O-].[Na+] [sodium pyruvate, reference compound] |  | cell viability (cultured astrocytes; 10 mM): lowered cell viability
3 | COc1ccc(CCNc2ccc(N(C)C)cc2)cc1 [Example 7] | 0.46 µM | 
4 | Nc1ccc(NCCc2ccccc2Cl)cc1 [Example 15] | 0.59 µM | 
5 | CN(C)c1ccc(NCCc2cccc(C(F)(F)F)c2)cc1 [Example 3] | 0.56 µM | 
6 | O=C(O)c1cc(NCCc2ccc(C(F)(F)F)cc2)ccc1O [AAD-2004, reference compound] | 0.99 µM | Papp at 50 μM [1]: 35.6 nm/s
7 | CNc1ccc(NCCc2cccc(OC)c2)cc1 [Example 24] | 0.61 µM | 
8 | CNc1ccc(NCCc2ccccc2C(F)(F)F)cc1 [Example 18] | 0.21 µM | 
9 | CN(C)c1ccc(NCCc2ccc(Cl)cc2)cc1 [Example 6] | 0.27 µM | 
10 | Nc1ccc(NCCc2cccc(C(F)(F)F)c2)cc1 [Example 13] | 0.72 µM | 
11 | CNc1ccc(NCCc2ccc(OC)cc2)cc1 [Example 23] | 0.62 µM | 
12 | CNc1ccc(NCCc2cccc(Cl)c2)cc1 [Example 20] | 0.26 µM | 
13 | CNc1ccc(NCCc2cccc(C(F)(F)F)c2)cc1 [Example 19] | 0.19 µM | 
14 | CNc1ccc(NCCc2ccc(C(F)(F)F)cc2)cc1 [Example 16] | 0.19 µM | GFAP (astrocytes) in hippocampus [2]: decreased GFAP; animals died (WT mouse (C57BL/6 mouse)): about 50%; toxicity (death of animals) (WT mouse (C57BL/6 mouse)): showed toxicity; lethal toxicity (WT mouse (C57BL/6 mouse)): lethal toxicity was not shown; latency to dark room (impaired memory) (APP/PS1 mouse): significantly recovered
15 | CN(C)c1ccc(NCCc2ccccc2Cl)cc1 [Example 4] | 0.58 µM | 
16 | Nc1ccc(NCCc2ccc(C(F)(F)F)cc2)cc1 [Example 9] | 0.3 µM | 
17 | CNc1ccc(NCCCc2ccc(C(F)(F)F)cc2)cc1 [Example 17] |  | EC50 (hemoglobin (Hb); (DMSO)): 0.3 µM
18 | Nc1ccc(NCCCc2ccc(C(F)(F)F)cc2)cc1 [Example 11] |  | EC50 (hemoglobin (Hb); (DMSO)): 0.54 µM
19 | Nc1ccc(NCCc2cccc(F)c2)cc1 [Example 14] | 0.78 µM | 
20 | CN(C)c1ccc(NCCc2ccc(F)cc2)cc1 [Example 8] | 0.41 µM | 
21 | Nc1ccc(NCCc2ccccc2C(F)(F)F)cc1 [Example 12] | 0.83 µM | 
22 | CN(C)c1ccc(NCCCc2ccc(C(F)(F)F)cc2)cc1 [Example 10] |  | EC50 (hemoglobin (Hb); (DMSO)): 0.3 µM
23 | CNc1ccc(NCCc2ccc(Cl)cc2)cc1 [Example 22] | 0.52 µM | 
24 | CN(C)c1ccc(NCCc2ccc(C(F)(F)F)cc2)cc1 [Example 1] | 0.54 µM | GFAP (astrocytes) in hippocampus [2]: decreased GFAP; H2O2 decomposition effect on naturally occurring H2O2 ([3]; 10 μM, 2 days, cultured astrocytes): statistically significant decrease in H2O2; amount of H2O2 in cells (fluorescence intensity) ([3]; astrocytes treated at various concentrations): H2O2 was decreased with the concentration; animals died (WT mouse (C57BL/6 mouse)): about 50%; toxicity (death of animals) (WT mouse (C57BL/6 mouse)): showed toxicity; lethal toxicity (WT mouse (C57BL/6 mouse)): lethal toxicity was not shown; latency to dark room (impaired memory) (APP/PS1 mouse): significantly recovered; cell viability (cultured astrocytes; 100 μM): no effect on cell viability
